From PubChem BioAssay AID1963838 (Molecular Pharmacology Branch, DTP, NCI, 2024)

Tested on: 855422-203-R-J1-PDC complex spheroid viability
Experiment: Anticancer human tumor 855422-203-R-J1-PDC patient-derived bladder carcinoma cell line growth inhibition [POLQ]
Conditions: for IC50: curve of first compound; for viability, T/C: stronger effect = lower value
How it was run: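 Three-cell-type spheroids modelling solid tumor plus stroma served as the readout system; POL inhibitors were tested individually and in combination, concentration ranges set by clinical Cmax where known.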

[1] = second compound 0.0316 µM, first compound 0.0316 µM
[2] = second compound 0.0316 µM, first compound 0.1 µM
[3] = second compound 0.0316 µM, first compound 0.316 µM
[4] = second compound 0.0316 µM, first compound 1 µM
[5] = second compound 0.0316 µM, first compound 3.16 µM
[6] = second compound 0.0316 µM, first compound 10 µM
[7] = second compound 0.1 µM, first compound 0.0316 µM
[8] = second compound 0.1 µM, first compound 0.1 µM
[9] = second compound 0.1 µM, first compound 0.316 µM
[10] = second compound 0.1 µM, first compound 1 µM
[11] = second compound 0.1 µM, first compound 3.16 µM
[12] = second compound 0.1 µM, first compound 10 µM
[13] = second compound 0.316 µM, first compound 0.0316 µM
[14] = second compound 0.316 µM, first compound 0.1 µM
[15] = second compound 0.316 µM, first compound 0.316 µM
[16] = second compound 0.316 µM, first compound 1 µM
[17] = second compound 0.316 µM, first compound 3.16 µM
[18] = second compound 0.316 µM, first compound 10 µM
[19] = second compound 1 µM, first compound 0.0316 µM
[20] = second compound 1 µM, first compound 0.1 µM
[21] = second compound 1 µM, first compound 0.316 µM
[22] = second compound 1 µM, first compound 1 µM
[23] = second compound 1 µM, first compound 3.16 µM
[24] = second compound 1 µM, first compound 10 µM
[25] = second compound 3.16 µM, first compound 0.0316 µM
[26] = second compound 3.16 µM, first compound 0.1 µM
[27] = second compound 3.16 µM, first compound 0.316 µM
[28] = second compound 3.16 µM, first compound 1 µM
[29] = second compound 3.16 µM, first compound 3.16 µM
[30] = second compound 3.16 µM, first compound 10 µM
[31] = second compound 10 µM, first compound 0.0316 µM
[32] = second compound 10 µM, first compound 0.1 µM
[33] = second compound 10 µM, first compound 0.316 µM
[34] = second compound 10 µM, first compound 1 µM
[35] = second compound 10 µM, first compound 3.16 µM
[36] = second compound 10 µM, first compound 10 µM
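Note: spheroids exposed to compounds for seven days before readout.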

C#Cc1c(F)ccc2cc(O)cc(-c3ncc4c(N5CC6CCC(C5)N6)nc(OCC56CCCN5CC(F)C6)nc4c3F)c12 (stereo unspecified) + Nc1ccc(C#CCN(C(=O)Cc2ncc(C(F)(F)F)cc2C(F)(F)F)c2ccc(F)cc2)nn1
IC50 (second compound 0.0316 µM): > 10 µM | IC50 (second compound 0.1 µM): > 10 µM | IC50 (second compound 0.316 µM): > 10 µM | IC50 (second compound 1 µM): > 10 µM | IC50 (second compound 3.16 µM): > 10 µM | IC50 (second compound 10 µM): > 10 µM | viability, T/C [1]: 110% | viability, T/C [2]: 110% | viability, T/C [3]: 102% | viability, T/C [4]: 98% | viability, T/C [5]: 110% | viability, T/C [6]: 109% | viability, T/C [7]: 96.4% | viability, T/C [8]: 106% | viability, T/C [9]: 85.6% | viability, T/C [10]: 101% | viability, T/C [11]: 138% | viability, T/C [12]: 102% | viability, T/C [13]: 100% | viability, T/C [14]: 120% | viability, T/C [15]: 124% | viability, T/C [16]: 111% | viability, T/C [17]: 120% | viability, T/C [18]: 115% | viability, T/C [19]: 107% | viability, T/C [20]: 98% | viability, T/C [21]: 107% | viability, T/C [22]: 109% | viability, T/C [23]: 113% | viability, T/C [24]: 99% | viability, T/C [25]: 92.5% | viability, T/C [26]: 99% | viability, T/C [27]: 97.9% | viability, T/C [28]: 97.6% | viability, T/C [29]: 108% | viability, T/C [30]: 106% | viability, T/C [31]: 103% | viability, T/C [32]: 94.3% | viability, T/C [33]: 90.7% | viability, T/C [34]: 100% | viability, T/C [35]: 103% | viability, T/C [36]: 91.3%

C=CC(=O)N1CCN(c2nc(=O)n(-c3c(C)ccnc3C(C)C)c3nc(-c4c(O)cccc4F)c(F)cc23)C(C)C1 (stereo unspecified) + Nc1ccc(C#CCN(C(=O)Cc2ncc(C(F)(F)F)cc2C(F)(F)F)c2ccc(F)cc2)nn1
IC50 (second compound 0.0316 µM): > 10 µM | IC50 (second compound 0.1 µM): > 10 µM | IC50 (second compound 0.316 µM): > 10 µM | IC50 (second compound 1 µM): > 10 µM | IC50 (second compound 3.16 µM): > 10 µM | IC50 (second compound 10 µM): > 10 µM | viability, T/C [1]: 101% | viability, T/C [2]: 116% | viability, T/C [3]: 120% | viability, T/C [4]: 105% | viability, T/C [5]: 144% | viability, T/C [6]: 214% | viability, T/C [7]: 99% | viability, T/C [8]: 137% | viability, T/C [9]: 107% | viability, T/C [10]: 121% | viability, T/C [11]: 159% | viability, T/C [12]: 235% | viability, T/C [13]: 126% | viability, T/C [14]: 129% | viability, T/C [15]: 121% | viability, T/C [16]: 122% | viability, T/C [17]: 146% | viability, T/C [18]: 176% | viability, T/C [19]: 99.4% | viability, T/C [20]: 113% | viability, T/C [21]: 92.2% | viability, T/C [22]: 158% | viability, T/C [23]: 120% | viability, T/C [24]: 173% | viability, T/C [25]: 103% | viability, T/C [26]: 121% | viability, T/C [27]: 97.2% | viability, T/C [28]: 129% | viability, T/C [29]: 129% | viability, T/C [30]: 175% | viability, T/C [31]: 109% | viability, T/C [32]: 108% | viability, T/C [33]: 99.1% | viability, T/C [34]: 117% | viability, T/C [35]: 113% | viability, T/C [36]: 124%

CC(C)n1c(=O)n(C)c2cnc3cc(F)c(-c4ccc(OCCCN5CCCCC5)nc4)cc3c21 + Nc1ccc(C#CCN(C(=O)Cc2ncc(C(F)(F)F)cc2C(F)(F)F)c2ccc(F)cc2)nn1
IC50 (second compound 0.0316 µM): > 10 µM | IC50 (second compound 0.1 µM): > 10 µM | IC50 (second compound 0.316 µM): > 10 µM | IC50 (second compound 1 µM): > 10 µM | IC50 (second compound 3.16 µM): > 10 µM | IC50 (second compound 10 µM): > 10 µM | viability, T/C [1]: 100% | viability, T/C [2]: 123% | viability, T/C [3]: 110% | viability, T/C [4]: 94.2% | viability, T/C [5]: 99.9% | viability, T/C [6]: 107% | viability, T/C [7]: 99.4% | viability, T/C [8]: 140% | viability, T/C [9]: 97.2% | viability, T/C [10]: 94.4% | viability, T/C [11]: 100% | viability, T/C [12]: 93.5% | viability, T/C [13]: 96.5% | viability, T/C [14]: 128% | viability, T/C [15]: 96.3% | viability, T/C [16]: 99.3% | viability, T/C [17]: 97% | viability, T/C [18]: 96.1% | viability, T/C [19]: 91.8% | viability, T/C [20]: 120% | viability, T/C [21]: 95.1% | viability, T/C [22]: 99.2% | viability, T/C [23]: 101% | viability, T/C [24]: 91.3% | viability, T/C [25]: 97.9% | viability, T/C [26]: 148% | viability, T/C [27]: 98% | viability, T/C [28]: 106% | viability, T/C [29]: 103% | viability, T/C [30]: 92.1% | viability, T/C [31]: 104% | viability, T/C [32]: 101% | viability, T/C [33]: 91.3% | viability, T/C [34]: 100% | viability, T/C [35]: 101% | viability, T/C [36]: 82.8%
